Results as given in patent US20250154220A1, “INSULIN ANALOGS FOR THE TREATMENT OF HUMAN METABOLIC DISORDER AND DISEASE” (Ambio, Inc., priority 2023, published 2025).
Entries after “also recorded” stand apart in the source; their conditions may differ.

Tests used:
ICR mice [1] = experiment: Biopotency in ICR mice against insulin reference standard, chapter <1211> of Chinese Pharmacopeia (blood glucose 40 min after injection); type: in vivo; details: low and high dosing solutions 0.05 and 0.1 IU/mL, blood 40 minutes after administration, FIG. 7
Procedure: The biopotency of the eight insulin analogs was determined by comparison with the insulin reference standard following chapter <1211> of Chinese Pharmacopeia. In particular, the insulin analogs and insulin reference standard were prepared with either diluent 1 or diluent 2. Diluent 1 comprises 0.9% sodium chloride at a pH of 2.5 (adjusted with HCl) and 0.2% phenol. Diluent 2 comprises 0.9% sodium chloride at a pH of 2.5 (adjusted with HCl). The insulin reference standard (27.2 IU/mg) and the insulin analogs (calculated as 25 IU/mg) were prepared with diluent 1. In addition, low- and high-dosing solutions (0.05 IU/mL and 0.1 IU/mL, respectively) of insulin reference standard and test analogs were prepared with diluent 2. Following chapter <1211> of Chinese Pharmacopeia, ICR mice (25-28 g, 6 animals per group) were injected with 0.2-0.3 mL of low and high dosing solution of the eight insulin analogs and insulin standard. Low and high doses of insulin standard and insulin analogs were administered to the mice following parallel design/protocol. […] The glucose concentration of each blood sample was determined by the glucose oxidase-peroxidase method (Roche blood glucose test strips). […] FIG. 6 summarizes the relative biopotency of the insulin analogs by comparing the calculated biopotency and measured biopotency.

Sprague-Dawley (SD) rats [2] = experiment: c-peptide levels in non-fasted Sprague-Dawley rats after subcutaneous injection; type: in vivo; details: 175 nmol-200 nmol s.c.; for duration of c-peptide level compared to rats injected with Degludec: over 120 hours
Procedure: (§1) Male Sprague-Dawley (SD) rats at the age of 8-10 weeks old were administered a dose of 175 nmol-200 nmol insulin analogs 1, 2, 3, 4, APi3545, APi3546, APi3547, and APi3549 through subcutaneous injection. Insulin Degludec was used as a positive control. A vehicle control consisted of glycerol (19.6 mg), metacresol (1.72 mg), phenol (1.50 mg), zinc acetate ([…]), and WFI to 1 mL.

Sprague-Dawley (SD) rats [3] = experiment: Glucose levels in non-fasted Sprague-Dawley rats after subcutaneous injection; type: in vivo; details: for duration of decrease in glucose levels compared to rats injected with Degludec: over 120 hours; for glucose area under the curve (AUC) values: FIG. 9 (0-96 hour) and FIG. 15 (0-72 hour)
Procedure: as §1

[4] = Body weight of non-fasted Sprague-Dawley rats after subcutaneous injection; type: in vivo; details: SD rats, over 120 hours, FIG. 13 and FIG. 16
Procedure: as §1

[5] = Body weight of db/db mice measured daily for 3 days after single subcutaneous dose; type: in vivo; details: Day 1-3, 1.5 IU/mg Degludec, all dose levels of Analog #1, FIGS. 3A-3B
Procedure: (§2) Accordingly, the ability of insulin analog 1 (FIG. 1A) to control the glucose profile in a db/db type II diabetes model was tested. As a control, wild type m/m mouse strain was included in the study. Mice were male, between ages 6-8 weeks, and the total group size was 8. The insulin analogs were delivered as a subcutaneous single dose. The dose volume was 5 mL/Kg ([…] per 25 g mouse). Mice were injected at the following dose levels: Degludec 1.5 IU/kg (model) and insulin analog #1 (FIG. 1A) at 0.04 mg/kg, 0.12 mg/kg, or 0.36 mg/kg. All insulin compounds (Degludec and analog #1) were diluted with 0.9% sodium chloride (vehicle, normal saline). Vehicle controls were comprised of 0.9% sodium chloride.
(§3) Blood collection for glucose plasma concentration measurements occurred at Oh (0-60 min before dosing), 0.5 h, 1 h, 2 h, 4 h, 6 h, 8 h, 10 h, 12 h, 18 h, 24 h, 30 h after the single dose. Moreover, the mouse body weight was measured daily for 3 days.

db/db mice = experiment: Glucose profile after single subcutaneous dose in db/db type II diabetes mouse model; type: in vivo
From the text: Murine db/db murine strain is a well-accepted type II diabetes model that recapitulates most aspects of human type II diabetes. In particular, db/db mice carry mutations in the leptin receptor that lead to obesity, decreased insulin receptor sensitivity, and subsequent increased levels of blood glucose, decreased β-cell function, and elevated HBA1c levels. Like human Type II diabetes, the diabetic condition in db/db mice is progressive. Animals have near normal or slightly elevated plasma glucose (PG) and relatively normal β-cell function at 6 weeks of age. Fasting plasma glucose (FPG) levels gradually elevate over several weeks and β-cell function declines such that by about 16 weeks of age FPG is very high (>400 mg/dL) and j-cell function has entirely degenerated. The db/db mouse model may be used in an acute setting but is more typically used in a chronic setting to evaluate a test compound's cumulative action over several weeks of treatment. The variability is reasonably low such that good statistically significant effects are seen with validating compounds with group sizes of about 8 animals.
as §2, with “Mice were injected at the following dose levels: Degludec 1.5 IU/kg (model) and insulin analog #1 (FIG. 1A) at 0.04 mg/kg, 0.12 mg/kg, or 0.36 mg/kg.” left out
as §3

IGF-1R = target: T1, IGF-1R (Homo sapiens, UniProt P08069); experiment: IGF-1R activation in IGF-1R (Luc) HEK293 reporter cells; type: cell-based; details: up to 4 μg/mL (1.6 μM) concentration
T1 construct: expressed in transfected cells; host or cells: IGF-1R (Luc) HEK293 reporter cells
T1 sequence (P08069 31-736 limits assumed): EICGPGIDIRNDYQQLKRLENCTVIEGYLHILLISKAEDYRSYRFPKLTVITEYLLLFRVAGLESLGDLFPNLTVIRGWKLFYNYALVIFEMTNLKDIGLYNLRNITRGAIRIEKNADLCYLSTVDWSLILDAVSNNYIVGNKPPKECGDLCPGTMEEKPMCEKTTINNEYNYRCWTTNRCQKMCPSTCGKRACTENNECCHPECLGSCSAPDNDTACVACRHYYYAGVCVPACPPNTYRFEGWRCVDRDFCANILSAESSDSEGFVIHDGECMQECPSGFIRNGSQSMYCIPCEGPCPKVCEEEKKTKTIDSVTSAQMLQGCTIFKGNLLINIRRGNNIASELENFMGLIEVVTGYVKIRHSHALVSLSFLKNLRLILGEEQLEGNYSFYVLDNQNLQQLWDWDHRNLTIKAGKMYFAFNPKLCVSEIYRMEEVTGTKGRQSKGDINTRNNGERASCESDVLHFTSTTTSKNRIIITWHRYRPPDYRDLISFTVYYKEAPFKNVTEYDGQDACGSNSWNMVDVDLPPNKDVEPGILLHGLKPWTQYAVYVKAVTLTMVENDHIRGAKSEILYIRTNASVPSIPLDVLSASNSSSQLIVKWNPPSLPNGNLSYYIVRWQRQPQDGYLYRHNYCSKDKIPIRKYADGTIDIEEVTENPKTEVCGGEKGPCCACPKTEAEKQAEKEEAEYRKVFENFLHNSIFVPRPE
T1 sequence (P08069 741-1367 limits assumed): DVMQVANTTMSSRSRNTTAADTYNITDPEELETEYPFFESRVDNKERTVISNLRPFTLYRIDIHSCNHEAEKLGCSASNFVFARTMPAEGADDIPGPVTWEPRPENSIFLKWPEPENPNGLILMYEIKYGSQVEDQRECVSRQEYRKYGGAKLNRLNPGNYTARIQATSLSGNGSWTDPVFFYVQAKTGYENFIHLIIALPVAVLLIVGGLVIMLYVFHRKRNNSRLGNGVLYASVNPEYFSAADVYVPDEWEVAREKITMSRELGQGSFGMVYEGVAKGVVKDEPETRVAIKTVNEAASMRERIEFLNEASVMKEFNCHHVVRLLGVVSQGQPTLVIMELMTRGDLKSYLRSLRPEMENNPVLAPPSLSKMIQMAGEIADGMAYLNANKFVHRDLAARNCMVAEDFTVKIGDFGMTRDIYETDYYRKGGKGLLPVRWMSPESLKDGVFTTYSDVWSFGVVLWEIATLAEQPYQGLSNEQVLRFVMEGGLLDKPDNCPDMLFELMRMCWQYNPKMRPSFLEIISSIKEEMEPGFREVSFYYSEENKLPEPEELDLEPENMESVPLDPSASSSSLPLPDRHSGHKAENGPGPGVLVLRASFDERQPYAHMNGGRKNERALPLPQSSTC
From the text: Insulin-like growth factor (IGF-1R) is a tyrosine kinase type receptor that regulates cell growth and proliferation and can be activated by IGF-1, IGF-2, and insulin. […]

ICR mice [6] = details: reference standard as labelled; cited from earlier work
[7] = SD rats, 175 nmol-200 nmol s.c.

Substance | duration of c-peptide level compared to rats injected with Degludec (Sprague-Dawley (SD) rats [2]) | duration of decrease in glucose levels compared to rats injected with Degludec (Sprague-Dawley (SD) rats [3]; [7]) | rate of body weight increase compared to rats injected with Degludec [4] | glucose area under the curve (AUC) values (Sprague-Dawley (SD) rats [3]; SD rats) | further results
APi3545: A-chain SEQ ID NO: 11 (A14 Aad), B-chain SEQ ID NO: 16 (B16 His(5-I), B25 Ala(4-thiazoyl)); structure FIG. 1H | maintained the level of c-peptide for a longer time | longer lasting decrease in glucose levels | – | – | glucose lowering effect / biopotency measured in ICR mice (ICR mice [1]): most active; time undetectable c-peptide level was maintained (Sprague-Dawley (SD) rats [2]): up to 72 hours; duration of action among insulin analogs tested (Sprague-Dawley (SD) rats [3]; structure-activity relationship (Example 5)): most long-acting insulin analog tested
APi3546: A-chain SEQ ID NO: 11 (A14 Aad), B-chain SEQ ID NO: 18 (B16 His(5-I), B25 3-Pal); structure FIG. 1I | maintained the level of c-peptide for a longer time | longer lasting decrease in glucose levels | lower rate of body weight increase | – | –
Degludec [reference compound] | – | – | – | – | effect on animal body weight [5]: no significant effect
insulin analog 1: A-chain SEQ ID NO: 3 (A14 Gla), B-chain SEQ ID NO: 4 (B16 and B25 His(3-Me)); structure FIG. 1A | maintained the level of c-peptide for a longer time | longer lasting decrease in glucose levels | lower rate of body weight increase | – | effect on animal body weight [5]: no significant effect; glucose profile compared to db/db vehicle control (db/db mice; 0.12 mg/kg, s.c. single dose, 2, 4, 6 and 8 hr time points, FIG. 2): statistically significantly lower; response (glucose level decrease) versus dose (db/db mice; 0.36 mg/kg, 0.12 mg/kg and 0.04 mg/kg doses): dose proportional; glucose profile compared to db/db vehicle control (db/db mice; 0.36 mg/kg, entire time course starting from 2 hr time point): statistically lower; glucose profile compared to db/db vehicle control (db/db mice; 0.36 mg/kg, s.c. single dose, 2, 4, 6 and 8 hr time points, FIG. 2): statistically significantly lower; IGF-1R activation (IGF-1R; FIG. 19, listed as 1): none of insulin analogs 1, 2, 3, and 4 showed IGF-1R activation; also recorded: lack of IGF-1R activation
insulin analog 2: A-chain SEQ ID NO: 3 (A14 Gla), B-chain SEQ ID NO: 6 (B16 and B25 Pal, B28 Pro); structure FIG. 1B | maintained the level of c-peptide for a longer time | – | lower rate of body weight increase | follow the order of their specific activities | glucose lowering effect / biopotency measured in ICR mice (ICR mice [1]): most active; c-peptide lowering effect among analogs tested (Sprague-Dawley (SD) rats [2]): most profound and longest-lasting c-peptide lowering effect; duration of decrease in glucose levels compared to rats injected with Degludec (Sprague-Dawley (SD) rats [3]; SD rats, 175 nmol-200 nmol s.c., listed as 2): longer lasting decrease in glucose level; IGF-1R activation (IGF-1R; FIG. 19, listed as 2): none of insulin analogs 1, 2, 3, and 4 showed IGF-1R activation; also recorded: lack of IGF-1R activation
insulin analog 3: A-chain SEQ ID NO: 3 (A14 Gla), B-chain SEQ ID NO: 8 (B16 and B25 Pal, B28 Hyp); structure FIG. 1C | maintained the level of c-peptide for a longer time | longer lasting decrease in glucose levels | – | follow the order of their specific activities | magnitude of glucose lowering effect among analogs tested (Sprague-Dawley (SD) rats [3]; [7]): most profound glucose lowering effect; IGF-1R activation (IGF-1R; FIG. 19, listed as 3): none of insulin analogs 1, 2, 3, and 4 showed IGF-1R activation; also recorded: lack of IGF-1R activation
insulin analog 4: A-chain SEQ ID NO: 3 (A14 Gla), B-chain SEQ ID NO: 10 (B16 and B25 Pal, B28 Pip); structure FIG. 1D | maintained the level of c-peptide for a longer time | longer lasting decrease in glucose levels | lower rate of body weight increase | follow the order of their specific activities | IGF-1R activation (IGF-1R; FIG. 19, listed as 4): none of insulin analogs 1, 2, 3, and 4 showed IGF-1R activation; also recorded: lack of IGF-1R activation
insulin reference standard: insulin reference standard (27.2 IU/mg) of chapter <1211> of Chinese Pharmacopeia biopotency test | – | – | – | – | potency of insulin reference standard (ICR mice [6]): 27.2 IU/mg
